# Data taken from paper PMC4791210 (International immunopharmacology, 2015).
# Tests used:
# FPR1 [1] = conditions: read-out: IC50, blocking of fMLF binding to FPR1; cited from earlier work
# FPR1 [2] = target: T1, FPR1 (Homo sapiens, UniProt P21462); conditions: read-out: IC50, displacement of [3H]-fMLF; FPR1-transfected RBL cells; cited from earlier work
# T1 sequence (P21462 1-350): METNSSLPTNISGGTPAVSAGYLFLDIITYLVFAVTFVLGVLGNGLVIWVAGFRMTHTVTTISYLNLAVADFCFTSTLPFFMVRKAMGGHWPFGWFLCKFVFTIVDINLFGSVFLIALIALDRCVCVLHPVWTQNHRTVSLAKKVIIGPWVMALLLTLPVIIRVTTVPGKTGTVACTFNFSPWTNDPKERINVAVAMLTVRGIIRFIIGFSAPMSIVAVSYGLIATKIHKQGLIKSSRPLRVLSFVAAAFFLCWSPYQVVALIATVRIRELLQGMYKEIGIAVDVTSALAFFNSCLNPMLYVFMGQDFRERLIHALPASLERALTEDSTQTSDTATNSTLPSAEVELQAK
# FPR2 = conditions: cited from earlier work
# [3] = test system: fMLF-stimulated neutrophils; conditions: list of responses inhibited; ref per compound in References column of Table 1; cited from earlier work
# human neutrophils [4] = conditions: cited from earlier work; for Inhibition of fMLF-induced Ca2+ mobilization in human neutrophils / Inhibition of fMLF-induced Ca2+ flux in neutrophils: result in words
# human neutrophils [5] = conditions: result in words; no data shown; cited from earlier work
# FPR1 [6] = target: T1, FPR1; conditions: cited from earlier work
# FPR1 [7] = target: T1, FPR1; conditions: result in words; cited from earlier work
# FPR1 [8] = target: T1, FPR1; conditions: result in words; no data shown; cited from earlier work
# rat neutrophils = conditions: fMLF-stimulated rat neutrophils, cited from earlier work
# neutrophils = conditions: read-out: IC50, inhibition of fMLF-stimulated neutrophil degranulation; cited from earlier work
# FPR1 [9] = target: T1, FPR1; conditions: human neutrophils; cited from earlier work
# FPR1 [10] = conditions: cited from earlier work
# monocytes = conditions: read-out: IC50, inhibition of fMLF-induced monocyte locomotion; cited from earlier work
# [11] = animal experiments; cited from earlier work
# [12] = animal experiments; cited from earlier work; remark: listed apart in the source
# [13] = test system: fMLF-stimulated neutrophils; conditions: result in words; cited from earlier work
# FPR1 [14] = conditions: high concentrations; cited from earlier work
# human neutrophils [15] = experiment: Direct activation of Ca2+ flux in human neutrophils; format: cell-based; conditions: Neutrophil, read-out: Human Neutrophils Activation (EC50, μM)
# FPR1 [16] = target: T1, FPR1; experiment: Direct activation of Ca2+ flux in FPR1 transfected HL-60 cells; format: cell-based
compound,measurement,setting,value
"COc1ccc(C[C@H]2COC(=O)[C@@H]2Cc2ccc(O)c(O)c2)cc1OC [Lignan PP-6, (2R, 3R)-2-(3′,4′-dihydroxybenzyl)-3-(3″,4″-dimethoxybenzyl)butyrolactone]",IC50,FPR1 [1],~1.5 µM
cyclosporine A [CsA],IC50,FPR1 [2],1.8 µM
same,Inhibitory effects on FPR2-mediated cellular functions,FPR2,did not exhibit any obvious inhibitory effects
COC1=CC(=O)c2cc(-c3ccc(OC)c(O)c3)c3cc(O)c(OC)cc3c2C1=O [Pterolinus K],fMLF-induced Responses Inhibited in Neutrophils,[3],"O2^−· production, HNE release"
Cc1cc2ccc3c(c2cc1O)CCC(=O)C3(C)C [Flueggrene A],fMLF-induced Responses Inhibited in Neutrophils,[3],"O2^−· production, HNE release"
COc1ccc(CCN(C)C(=O)/C=C/c2ccc(O)cc2)cc1 [Ailanthamide],fMLF-induced Responses Inhibited in Neutrophils,[3],"O2^−· production, HNE release"
COc1ccc(-c2coc3cc(O)cc(O)c3c2=O)cc1 [Biochanin A],Inhibition of fMLF-induced Ca2+ mobilization in human neutrophils,human neutrophils [4],inhibited
same,Direct agonist activity in primary neutrophils,human neutrophils [5],direct agonist activity
same,Inhibition of binding of labeled ligand (WKYMVm-FITC) to FPR1-HL60 cells,FPR1 [6],did not inhibit binding
same,Inhibition of fMLF-induced Ca2+ flux in FPR1-HL60 cells,FPR1 [7],inhibited
same,Direct agonist activity in FPR1-HL60 cells,FPR1 [8],direct agonist activity
COc1c2ccoc2cc2oc(=O)ccc12 [Bergapten],fMLF-induced Responses Inhibited in Neutrophils,[3],"O2^−· production, HNE release"
CC1(C)C=Cc2cc3ccc(=O)oc3cc2O1 [Xanthyletin],fMLF-induced Responses Inhibited in Neutrophils,[3],"O2^−· Production, HNE release"
C=C(C)C(O)Cc1c(O)ccc2ccc(=O)oc12 (centres unmarked) [Demethylauraptenol],fMLF-induced Responses Inhibited in Neutrophils,[3],"O2^−· production, HNE release"
"CC(=O)OCC(Cc1ccccc1)NC(=O)C(Cc1ccccc1)NC(=O)c1ccccc1 (centres unmarked) [Aurantiamide acetate, aurantiamide acetate]",fMLF-induced Responses Inhibited in Neutrophils,[3],O2^−· production
C[C@H](CCC(=O)NCCS(=O)(=O)O)[C@H]1CC[C@H]2[C@@H]3[C@@H](O)C[C@@H]4C[C@H](O)CC[C@]4(C)[C@H]3CC[C@]12C [tauroursodeoxycholic acid],IC50,"human neutrophils [4]; read-out: IC50, inhibition of fMLF-induced Ca2+ mobilization",~500 µM
O=c1c(-c2ccc(O)cc2)coc2cc(O)cc(O)c12 [genistein],Inhibition of fMLF-induced Ca2+ mobilization in human neutrophils,human neutrophils [4],none and did not antagonize
same,Inhibition of fMLF-induced Ca2+ flux in FPR1-HL60 cells,FPR1 [7],did not antagonize
C=C(C)[C@@H](CC=C(C)C)C[C@@]12C[C@@H](CC=C(C)C)C(C)(C)[C@]3(C=CC(C)(C)OC3=C(C(=O)c3ccccc3)C1=O)C2=O [Garcimultiflorone B],fMLF-induced Responses Inhibited in Neutrophils,[3],"O2^−· production, HNE release"
O=c1c(-c2ccccc2)coc2cc(O)ccc12 [7-hydroxyisoflavone],Inhibition of fMLF-induced Ca2+ mobilization in human neutrophils,human neutrophils [4],none
"CC[C@H](CC[C@@H](C)[C@H]1CC[C@H]2[C@@H]3CC(=O)C4CC(=O)CC[C@]4(C)[C@H]3CC[C@]12C)C(C)C (some centres unmarked) [stigmastane-3,6-dione]",Inhibition of O2−· production,rat neutrophils; result in words,non-active
COc1ccc(-c2coc3cc(O)c(OC)cc3c2=O)cc1 [afrormosin],Inhibition of fMLF-induced Ca2+ mobilization in human neutrophils,human neutrophils [4],none
same,IC50,neutrophils,~67 µM
O=c1c(-c2ccc(O)cc2)coc2cc(O)ccc12 [daidzein],Inhibition of fMLF-induced Ca2+ mobilization in human neutrophils,human neutrophils [4],none
"COc1cc(O)c2c(=O)c(OC)c(-c3ccc(O)c(OC)c3)oc2c1 [MSF-2, 5-hydroxy-2-(4-hydroxy-3-methoxyphenyl)-3,7-dimethoxy-4H-chromen-4-one]",Interference with fMLF binding,FPR1 [9],did not interfere
C/C(=C/Cc1c(O)cc2oc(C)cc(=O)c2c1O)CO [Cnidimol A],fMLF-induced Responses Inhibited in Neutrophils,[3],"O2^−· production, HNE release"
Aristolatams IIIa,fMLF-induced Responses Inhibited in Neutrophils,[3],"O2^−· production, HNE release"
Lawsonaphthoate A,fMLF-induced Responses Inhibited in Neutrophils,[3],"O2^−· production, HNE release"
COc1ccc(-c2coc3cc(O)ccc3c2=O)cc1 [formononetin],Inhibition of fMLF-induced Ca2+ mobilization in human neutrophils,human neutrophils [4],none
Berryammone A,fMLF-induced Responses Inhibited in Neutrophils,[3],"O2^−· production, HNE release"
"C=C(CO)[C@@H]1CC[C@]2(C)CC[C@]3(C)[C@H](CC[C@@H]4[C@@](C)(CC(=O)O)[C@H](C(C)(C)C(=O)O)CC[C@]43C)[C@@H]12 [Triterpene 17, 30-hydroxy-2,3-seco-lup-20(29)-ene-2,3-dioic acid]",fMLF-induced Responses Inhibited in Neutrophils,[3],"O2^−· production, HNE release"
Lawsochylin A,fMLF-induced Responses Inhibited in Neutrophils,[3],"O2^−· production, HNE release"
hecogenin,Concentrations that inhibited O2−· production,rat neutrophils,30 to 100 µM
cyclized SRSRY: cyclized form of urokinase receptor-derived peptide Ser-Arg-Ser-Arg-Tyr (not fully specified; cyclized; printed: Ser-Arg-Ser-Arg-Tyr),Binding of FITC-labeled fMLF to FPR1 transfected cells,FPR1 [10],inhibited binding
same,IC50,monocytes,0.01 nM
CC1(C)CC[C@]2(C(=O)O)CC[C@]3(C)C(=CC[C@@H]4[C@@]5(C)CC[C@H](O)C(C)(C)[C@@H]5CC[C@]43C)[C@@H]2C1 [Oleanolic acid],fMLF-induced Responses Inhibited in Neutrophils,[3],"O2^−· production, HNE release"
COc1c(C(=O)CCc2ccccc2)c(O)c(O)c2c1/C(=C/c1ccccc1)C(=O)O2 [bractelactone],Inhibition of fMLF-induced Ca2+ flux in neutrophils,human neutrophils [4],did not inhibit
CC(C)=CCc1c(O)ccc2ccc(=O)oc12 [Osthenol],fMLF-induced Responses Inhibited in Neutrophils,[3],"O2^−· production, HNE release"
cyclosporine H [CsH],Inhibitory effects on FPR2-mediated cellular functions,FPR2,did not exhibit any obvious inhibitory effects
same,Effect on acute inflammatory response evoked by cigarette smoke,[11],attenuated
same,Effect on fMLF-induced analgesia,[12],blocked
Berryammone B,fMLF-induced Responses Inhibited in Neutrophils,[3],"O2^−· production, HNE release"
C=C(C)[C@@H]1CC[C@]2(C(=O)O)CC[C@]3(C)[C@H](CC[C@@H]4[C@@]5(C)CC[C@@H](O)C(C)(C)[C@@H]5CC[C@]43C)[C@@H]12 [Epibetulinic acid],fMLF-induced Responses Inhibited in Neutrophils,[3],O2^−· production
COc1cc(CCCc2c(OC)cc(O)c(OC)c2OC)ccc1O [Viscolin],Inhibition of fMLF-induced Ca2+ flux in neutrophils,human neutrophils [4],did not inhibit
COc1c(O)c(OC)c2c(c1OC)O[C@H](c1ccccc1)CC2=O [isopedicin],Inhibition of fMLF-induced Ca2+ flux in neutrophils,human neutrophils [4],did not inhibit
COC(=O)C(C)CCC[C@]1(C)CC[C@]2(O1)C(=O)C(C)=C(C)[C@@]2(O)C(C)=O (some centres unmarked) [Hirsutocospiro A],fMLF-induced Responses Inhibited in Neutrophils,[3],"O2^−· production, HNE release"
C=C(C)[C@@H]1CC[C@]2(C(=O)O)CC[C@]3(C)[C@H](CC[C@@H]4[C@@]5(C)CC[C@H](O)C(C)(C)[C@@H]5CC[C@]43C)[C@@H]12 [betulinic acid],Effect on fMLF-induced release of HNE,[13],did not affect
"CC[C@H](CC[C@@H](C)[C@H]1CC[C@H]2[C@@H]3CC(=O)C4=CC(=O)CC[C@]4(C)[C@H]3CC[C@]12C)C(C)C [stigmast-4-ene-3,6-dione]",Concentrations that inhibited O2−· production,rat neutrophils,30 to 100 µM
C=CCc1ccc(O)c(-c2cc(O)ccc2O)c1 [Randaiol],fMLF-induced Responses Inhibited in Neutrophils,[3],O2^−· production and HNE release
"C[C@H](CCC(=O)O)[C@H]1CC[C@H]2[C@@H]3CC[C@@H]4C[C@H](O)CC[C@]4(C)[C@H]3C[C@H](O)[C@]12C [Deoxycholic acid (DCA), Deoxycholic acid]",Concentrations that antagonize FPR1 and inhibit 3H-fMLF binding,FPR1 [14],≥ 100 µM
same,EC50,human neutrophils [15],49 ± 5.4 µM
same,EC50,FPR1 [16],40.9 ± 5.5 µM
(+)-Episesamin,fMLF-induced Responses Inhibited in Neutrophils,[3],"O2^−· production, HNE release"
C=C1[C@H]2[C@@H]([C@@H](C(C)C)C[C@@H]1O)[C@H]1O[C@@H]2C[C@](C)(O)[C@@H](OC(=O)Cc2ccccc2)CC[C@@]1(C)OC(=O)CCC [Klymollin M],fMLF-induced Responses Inhibited in Neutrophils,[3],"O2^−· production, HNE release"
COc1cc2oc(=O)ccc2c2c1C=CC(C)(C)O2 [Alloxanthoxyletin],fMLF-induced Responses Inhibited in Neutrophils,[3],"O2^−· production, HNE release"
CC(C)=CCOc1c2occc2cc2ccc(=O)oc12 [Imperatorin],fMLF-induced Responses Inhibited in Neutrophils,[3],O2^−· production
same,EC50,human neutrophils [15],31.1 ± 3.6 µM
same,EC50,FPR1 [16],50.9 ± 4.7 µM
COc1c(O)ccc2c1cnc1c3cc4c(cc3ccc21)OCO4 [Decarine],fMLF-induced Responses Inhibited in Neutrophils,[3],"O2^−· production, HNE release"
